# Reference: ChEMBL document CHEMBL4665643 (Bioorg Med Chem Lett, 2019)
# Key:
# [1] = biological target: cAMP-dependent protein kinase catalytic subunit alpha (Homo sapiens) (UniProt P17612); test: Inhibition of recombinant human His-tagged PKA (1 to 351 residues) expressed in Escherichia coli expression system using Ser/Thr 01 as substrate at 0.1 uM incubated for 60 mins by Z'-lyte assay relative to control
# [2] = biological target: Cyclin-dependent kinase 1/cyclin B1 (Homo sapiens) (UniProt P06493+P14635); test: Inhibition of recombinant human His-tagged full length CDK1/Cyclin B expressed in baculovirus expression system using Ser/Thr 18 as substrate at 0.1 uM incubated for 60 mins by Z'-Lyte assay relative to control
# [3] = biological target: T1, Mitogen-activated protein kinase 13 (Homo sapiens) (UniProt O15264); test: Inhibition of recombinant human His-tagged full length p38 delta expressed in baculovirus expression system using Ser/Thr 03 as substrate at 0.1 uM incubated for 60 mins by Z'-Lyte assay relative to control
# T1 sequence (whole entry): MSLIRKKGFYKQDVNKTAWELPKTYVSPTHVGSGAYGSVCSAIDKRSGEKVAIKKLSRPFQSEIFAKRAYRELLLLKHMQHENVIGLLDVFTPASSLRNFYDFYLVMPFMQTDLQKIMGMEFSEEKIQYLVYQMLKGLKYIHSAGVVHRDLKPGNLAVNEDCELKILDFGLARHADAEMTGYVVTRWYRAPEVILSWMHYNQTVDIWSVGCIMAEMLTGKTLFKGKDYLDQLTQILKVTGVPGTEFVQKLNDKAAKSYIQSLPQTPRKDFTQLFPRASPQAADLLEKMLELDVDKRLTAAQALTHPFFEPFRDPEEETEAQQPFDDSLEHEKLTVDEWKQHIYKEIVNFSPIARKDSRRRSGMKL
# [4] = biological target: Proto-oncogene tyrosine-protein kinase ROS (Homo sapiens) (UniProt P08922); test: Inhibition of recombinant human GST-tagged […] ROS1 (1883 to 2347 residues) expressed in baculovirus expression system using Tyr 01 as substrate at 0.1 uM incubated for 60 mins by Z'-Lyte assay relative to control
# [5] = biological target: Tyrosine-protein kinase JAK1 (Homo sapiens, UniProt P23458); settings: dose 0.1 µM, time 60.0 min
# [6] = biological target: T2, Tyrosine-protein kinase JAK3 (Homo sapiens) (UniProt P52333); test: Inhibition of recombinant human GST-tagged JAK3 (781 to 1124 residues) expressed in baculovirus expression system using Tyr 06 as substrate at 0.1 uM incubated for 60 mins by Z'-lyte assay relative to control
# T2 sequence (whole entry): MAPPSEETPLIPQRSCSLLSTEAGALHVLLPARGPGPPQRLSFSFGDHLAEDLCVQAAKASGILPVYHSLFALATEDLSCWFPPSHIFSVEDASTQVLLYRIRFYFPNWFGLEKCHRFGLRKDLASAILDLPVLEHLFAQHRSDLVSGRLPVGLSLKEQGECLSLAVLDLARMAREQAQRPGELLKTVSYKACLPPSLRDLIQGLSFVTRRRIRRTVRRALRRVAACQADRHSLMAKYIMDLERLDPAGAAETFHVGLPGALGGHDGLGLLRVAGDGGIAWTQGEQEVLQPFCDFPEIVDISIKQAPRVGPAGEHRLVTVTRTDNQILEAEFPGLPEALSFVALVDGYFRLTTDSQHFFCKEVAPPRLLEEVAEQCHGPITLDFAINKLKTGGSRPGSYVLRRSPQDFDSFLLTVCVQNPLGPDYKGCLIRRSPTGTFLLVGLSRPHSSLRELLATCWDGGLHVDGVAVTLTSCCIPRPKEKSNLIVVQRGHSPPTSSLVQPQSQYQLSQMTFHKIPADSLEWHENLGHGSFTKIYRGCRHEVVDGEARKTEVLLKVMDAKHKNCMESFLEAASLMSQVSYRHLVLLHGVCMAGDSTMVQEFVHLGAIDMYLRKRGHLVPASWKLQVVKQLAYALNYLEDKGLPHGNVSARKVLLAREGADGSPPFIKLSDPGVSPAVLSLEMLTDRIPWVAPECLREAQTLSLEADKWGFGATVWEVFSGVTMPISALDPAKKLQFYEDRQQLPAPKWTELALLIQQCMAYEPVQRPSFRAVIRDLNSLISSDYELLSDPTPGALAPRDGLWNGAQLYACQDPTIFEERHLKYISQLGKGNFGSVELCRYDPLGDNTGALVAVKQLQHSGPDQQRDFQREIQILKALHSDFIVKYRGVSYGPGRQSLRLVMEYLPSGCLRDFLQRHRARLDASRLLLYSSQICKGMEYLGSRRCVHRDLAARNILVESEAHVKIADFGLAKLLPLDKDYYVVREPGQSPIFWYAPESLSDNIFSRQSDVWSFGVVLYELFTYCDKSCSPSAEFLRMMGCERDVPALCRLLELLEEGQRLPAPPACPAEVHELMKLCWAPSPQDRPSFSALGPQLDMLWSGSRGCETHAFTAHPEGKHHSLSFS
# [7] = biological target: T3, G protein-coupled receptor kinase 3 (Homo sapiens) (UniProt P35626); test: Inhibition of recombinant human GST-tagged full length GRK3 expressed in baculovirus expression system using Ser/Thr 16 as substrate at 0.1 uM incubated for 60 mins by Z'-Lyte assay relative to control
# T3 sequence (whole entry): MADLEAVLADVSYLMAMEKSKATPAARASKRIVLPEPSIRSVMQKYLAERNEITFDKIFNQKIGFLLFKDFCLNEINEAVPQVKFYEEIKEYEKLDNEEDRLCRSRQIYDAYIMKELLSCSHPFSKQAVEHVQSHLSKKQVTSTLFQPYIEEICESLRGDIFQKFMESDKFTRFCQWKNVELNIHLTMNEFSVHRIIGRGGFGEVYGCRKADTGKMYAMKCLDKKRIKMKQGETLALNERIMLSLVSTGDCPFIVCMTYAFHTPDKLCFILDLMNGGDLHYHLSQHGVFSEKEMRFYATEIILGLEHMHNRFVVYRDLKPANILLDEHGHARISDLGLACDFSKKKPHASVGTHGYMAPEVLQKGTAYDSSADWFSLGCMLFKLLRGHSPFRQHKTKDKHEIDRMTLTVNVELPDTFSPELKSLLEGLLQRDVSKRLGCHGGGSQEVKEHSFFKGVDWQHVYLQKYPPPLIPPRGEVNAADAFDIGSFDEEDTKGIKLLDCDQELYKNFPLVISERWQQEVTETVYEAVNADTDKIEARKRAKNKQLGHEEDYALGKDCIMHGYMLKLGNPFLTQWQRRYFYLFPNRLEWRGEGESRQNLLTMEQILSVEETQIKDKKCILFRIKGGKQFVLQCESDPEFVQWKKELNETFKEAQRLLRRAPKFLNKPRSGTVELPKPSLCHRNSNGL
# [8] = biological target: Serine/threonine-protein kinase B-raf (Homo sapiens) (UniProt P15056); test: Inhibition of recombinant human GST-tagged full length BRAF expressed in baculovirus expression system using Ser/Thr 03 as substrate at 0.1 uM incubated for 60 mins by Z'-Lyte assay relative to control
# Sequence of Serine/threonine-protein kinase B-raf (Homo sapiens) (P15056 whole entry): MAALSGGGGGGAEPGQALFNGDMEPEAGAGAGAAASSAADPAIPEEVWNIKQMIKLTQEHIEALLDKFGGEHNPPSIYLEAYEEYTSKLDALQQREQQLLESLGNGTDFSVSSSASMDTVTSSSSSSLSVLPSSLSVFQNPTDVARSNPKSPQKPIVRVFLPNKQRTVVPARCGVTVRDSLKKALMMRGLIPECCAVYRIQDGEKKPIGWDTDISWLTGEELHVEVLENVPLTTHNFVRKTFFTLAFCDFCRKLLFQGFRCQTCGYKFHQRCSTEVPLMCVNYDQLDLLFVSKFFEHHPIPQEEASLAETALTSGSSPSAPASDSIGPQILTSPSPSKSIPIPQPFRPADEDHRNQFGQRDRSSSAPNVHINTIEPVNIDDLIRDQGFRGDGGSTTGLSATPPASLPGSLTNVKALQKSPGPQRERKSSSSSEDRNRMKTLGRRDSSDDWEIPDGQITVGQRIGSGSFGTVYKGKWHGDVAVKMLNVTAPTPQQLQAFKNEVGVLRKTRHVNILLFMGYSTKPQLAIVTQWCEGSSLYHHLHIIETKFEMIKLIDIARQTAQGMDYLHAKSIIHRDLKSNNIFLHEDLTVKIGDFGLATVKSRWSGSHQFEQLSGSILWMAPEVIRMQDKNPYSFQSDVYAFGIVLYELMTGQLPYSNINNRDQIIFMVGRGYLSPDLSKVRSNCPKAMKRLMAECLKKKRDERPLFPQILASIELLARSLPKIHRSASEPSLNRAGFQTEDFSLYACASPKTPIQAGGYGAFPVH
# Sequence of Tyrosine-protein kinase JAK1 (P23458 whole entry, the tested form may be a part): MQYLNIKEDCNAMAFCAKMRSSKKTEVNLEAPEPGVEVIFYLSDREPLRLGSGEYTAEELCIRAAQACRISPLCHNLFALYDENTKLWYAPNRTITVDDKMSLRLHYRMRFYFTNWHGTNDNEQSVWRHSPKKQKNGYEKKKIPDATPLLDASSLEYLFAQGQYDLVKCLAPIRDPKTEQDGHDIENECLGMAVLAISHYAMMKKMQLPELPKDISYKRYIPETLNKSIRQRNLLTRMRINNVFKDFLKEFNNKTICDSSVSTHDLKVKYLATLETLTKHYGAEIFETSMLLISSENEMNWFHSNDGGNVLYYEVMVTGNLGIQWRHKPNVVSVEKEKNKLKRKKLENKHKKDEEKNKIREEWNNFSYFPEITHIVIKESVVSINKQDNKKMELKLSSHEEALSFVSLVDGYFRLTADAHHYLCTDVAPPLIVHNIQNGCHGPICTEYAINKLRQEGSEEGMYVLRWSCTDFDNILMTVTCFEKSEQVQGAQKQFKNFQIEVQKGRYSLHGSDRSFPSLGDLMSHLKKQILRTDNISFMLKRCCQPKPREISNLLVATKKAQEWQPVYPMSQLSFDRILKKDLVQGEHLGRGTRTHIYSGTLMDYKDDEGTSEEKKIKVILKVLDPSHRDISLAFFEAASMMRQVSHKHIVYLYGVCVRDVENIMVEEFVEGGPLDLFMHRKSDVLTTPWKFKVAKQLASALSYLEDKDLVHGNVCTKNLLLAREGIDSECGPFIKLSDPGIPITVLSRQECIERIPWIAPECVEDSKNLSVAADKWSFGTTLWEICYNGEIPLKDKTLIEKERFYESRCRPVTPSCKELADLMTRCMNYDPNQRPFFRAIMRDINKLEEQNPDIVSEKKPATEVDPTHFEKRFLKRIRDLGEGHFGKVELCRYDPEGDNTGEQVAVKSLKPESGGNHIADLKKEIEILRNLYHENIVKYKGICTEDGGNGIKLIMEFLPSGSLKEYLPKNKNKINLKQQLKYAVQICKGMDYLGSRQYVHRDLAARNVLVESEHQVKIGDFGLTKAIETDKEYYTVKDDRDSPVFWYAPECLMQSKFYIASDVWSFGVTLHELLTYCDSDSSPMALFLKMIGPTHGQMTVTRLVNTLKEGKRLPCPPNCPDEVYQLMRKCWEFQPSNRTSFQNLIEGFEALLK
# Sequence of Proto-oncogene tyrosine-protein kinase ROS (Homo sapiens) (P08922 whole entry, the tested form may be a part): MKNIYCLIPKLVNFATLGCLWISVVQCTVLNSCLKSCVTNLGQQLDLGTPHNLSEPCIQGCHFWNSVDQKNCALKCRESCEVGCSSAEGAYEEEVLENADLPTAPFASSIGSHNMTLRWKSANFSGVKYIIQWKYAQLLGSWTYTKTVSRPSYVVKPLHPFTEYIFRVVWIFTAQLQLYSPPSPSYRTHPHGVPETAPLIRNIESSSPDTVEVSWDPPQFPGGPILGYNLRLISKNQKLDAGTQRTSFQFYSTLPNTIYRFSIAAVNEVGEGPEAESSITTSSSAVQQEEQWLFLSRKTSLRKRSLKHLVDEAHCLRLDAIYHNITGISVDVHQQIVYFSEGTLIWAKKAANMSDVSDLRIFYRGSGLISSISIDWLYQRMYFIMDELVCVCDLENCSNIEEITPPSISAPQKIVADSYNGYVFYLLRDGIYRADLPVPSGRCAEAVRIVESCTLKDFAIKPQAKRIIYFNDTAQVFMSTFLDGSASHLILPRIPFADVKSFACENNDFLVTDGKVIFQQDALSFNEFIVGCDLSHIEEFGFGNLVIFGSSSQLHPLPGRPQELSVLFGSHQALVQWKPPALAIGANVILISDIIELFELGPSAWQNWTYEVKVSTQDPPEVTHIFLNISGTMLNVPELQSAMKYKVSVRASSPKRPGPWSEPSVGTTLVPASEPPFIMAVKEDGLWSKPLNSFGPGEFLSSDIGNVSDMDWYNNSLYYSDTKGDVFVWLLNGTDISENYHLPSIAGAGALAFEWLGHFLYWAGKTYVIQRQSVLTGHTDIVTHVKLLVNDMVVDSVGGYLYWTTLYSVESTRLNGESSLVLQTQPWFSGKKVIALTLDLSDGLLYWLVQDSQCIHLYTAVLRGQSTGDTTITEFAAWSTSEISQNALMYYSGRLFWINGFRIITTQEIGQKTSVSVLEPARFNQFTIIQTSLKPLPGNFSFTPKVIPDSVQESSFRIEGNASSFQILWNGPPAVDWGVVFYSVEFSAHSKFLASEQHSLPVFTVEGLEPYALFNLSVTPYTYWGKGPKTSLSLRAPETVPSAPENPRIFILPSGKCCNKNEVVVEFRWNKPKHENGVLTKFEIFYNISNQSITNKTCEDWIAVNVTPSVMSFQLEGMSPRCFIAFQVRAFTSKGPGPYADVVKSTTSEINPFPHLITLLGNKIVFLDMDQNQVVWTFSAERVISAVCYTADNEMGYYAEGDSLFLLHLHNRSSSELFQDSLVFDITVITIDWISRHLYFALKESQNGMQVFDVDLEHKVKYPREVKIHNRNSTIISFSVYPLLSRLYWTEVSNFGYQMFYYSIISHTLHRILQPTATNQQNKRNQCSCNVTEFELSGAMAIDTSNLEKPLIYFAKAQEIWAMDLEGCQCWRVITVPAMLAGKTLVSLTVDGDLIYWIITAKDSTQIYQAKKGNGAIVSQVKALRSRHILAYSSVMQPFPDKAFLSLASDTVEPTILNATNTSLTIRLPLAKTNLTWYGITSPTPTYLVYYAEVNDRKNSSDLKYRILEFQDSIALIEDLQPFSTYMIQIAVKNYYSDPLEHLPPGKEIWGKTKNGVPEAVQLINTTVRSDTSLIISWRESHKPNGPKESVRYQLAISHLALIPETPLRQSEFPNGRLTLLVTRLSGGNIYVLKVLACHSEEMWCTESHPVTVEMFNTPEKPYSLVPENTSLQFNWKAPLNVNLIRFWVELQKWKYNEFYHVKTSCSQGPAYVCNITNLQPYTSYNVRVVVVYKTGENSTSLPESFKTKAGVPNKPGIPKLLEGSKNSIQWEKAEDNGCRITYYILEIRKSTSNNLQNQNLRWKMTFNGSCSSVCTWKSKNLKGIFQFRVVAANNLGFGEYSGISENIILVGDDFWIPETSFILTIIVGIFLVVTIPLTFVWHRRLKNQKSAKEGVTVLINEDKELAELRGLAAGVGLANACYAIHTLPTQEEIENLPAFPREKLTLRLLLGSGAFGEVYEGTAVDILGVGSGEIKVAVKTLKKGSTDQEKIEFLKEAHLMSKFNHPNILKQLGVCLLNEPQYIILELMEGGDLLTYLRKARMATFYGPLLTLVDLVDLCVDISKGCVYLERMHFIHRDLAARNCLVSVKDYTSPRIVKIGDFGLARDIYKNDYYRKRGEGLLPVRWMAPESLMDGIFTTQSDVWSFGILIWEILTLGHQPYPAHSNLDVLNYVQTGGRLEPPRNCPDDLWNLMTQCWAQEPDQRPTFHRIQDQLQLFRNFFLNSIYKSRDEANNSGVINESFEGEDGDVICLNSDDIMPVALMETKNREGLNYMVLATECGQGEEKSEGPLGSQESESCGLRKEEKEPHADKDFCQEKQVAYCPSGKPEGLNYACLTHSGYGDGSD
# Sequence of Cyclin-dependent kinase 1/cyclin B1 (Homo sapiens) (P06493 whole entry, looked up): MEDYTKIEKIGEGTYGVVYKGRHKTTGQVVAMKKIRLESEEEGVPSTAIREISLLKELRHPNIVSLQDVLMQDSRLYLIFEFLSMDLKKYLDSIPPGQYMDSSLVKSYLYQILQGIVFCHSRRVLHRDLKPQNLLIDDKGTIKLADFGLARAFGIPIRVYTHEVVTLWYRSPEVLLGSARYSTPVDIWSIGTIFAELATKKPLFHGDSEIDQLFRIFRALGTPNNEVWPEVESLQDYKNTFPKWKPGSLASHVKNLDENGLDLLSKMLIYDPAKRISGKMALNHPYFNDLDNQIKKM
# Sequence of Cyclin-dependent kinase 1/cyclin B1 (Homo sapiens) (P14635 whole entry, looked up): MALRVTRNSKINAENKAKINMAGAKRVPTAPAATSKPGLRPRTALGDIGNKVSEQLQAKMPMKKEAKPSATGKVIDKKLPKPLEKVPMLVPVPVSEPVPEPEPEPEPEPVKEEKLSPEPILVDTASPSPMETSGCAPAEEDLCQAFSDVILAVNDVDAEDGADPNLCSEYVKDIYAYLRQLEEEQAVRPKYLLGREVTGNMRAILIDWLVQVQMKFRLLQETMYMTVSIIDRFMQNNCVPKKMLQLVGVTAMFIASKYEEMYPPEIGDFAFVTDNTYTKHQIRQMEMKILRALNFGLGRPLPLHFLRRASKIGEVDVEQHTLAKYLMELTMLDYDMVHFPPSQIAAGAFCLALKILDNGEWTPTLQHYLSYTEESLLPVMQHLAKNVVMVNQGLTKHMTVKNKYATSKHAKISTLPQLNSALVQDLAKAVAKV
SMILES,inhibition [1],inhibition [2],inhibition [3],inhibition [4],inhibition [5],inhibition [6],inhibition [7],inhibition [8]
O=C(Nc1c[nH]nc1-c1cc(Cl)ccc1OC(F)F)c1cnn2cccnc12,5%,53%,10%,38%,100%,95%,-1%,1%
O=C(Nc1c[nH]nc1-c1cc2ccccc2cc1OC(F)F)c1cnn2cccnc12,5%,27%,6%,29%,96%,94%,1%,4%
Cn1cc(NC(=O)c2cnn3cccnc23)c(-c2cc(Cl)ccc2OC(F)F)n1,-4%,4%,0%,62%,96%,98%,3%,5%
